Measurements from patent EP0172581B1, “Disaccharide derivatives” (DAIICHI SEIYAKU CO., LTD., priority 1984, dated 1986).
Like-named read-outs stand apart in the source and are kept apart here.

Legend:
[1] = test system: Japanese domestic white rabbits; experiment: Test II - test on pyrogenicity (Japanese Pharmacopoeia); format: in vivo; conditions: for Number of Febrile Animals/Number of Tested Animals: 0.1 µg/kg intravenously, febrile = temperature increase of 0.6°C or more
Description: The pyrogenicity of the compounds of this invention was determined in terms of body temperature increase in rabbits after intravenous injection of the test compound in accordance with the test method of pyrogenicity defined in Japanese Pharmacopoeia. That is, the rectal temperatures of Japanese domestic white rabbits (body weight: 2 to 2.5 kg) were measured 3 times at one-hour intervals. When the temperature in the second and third measurements were substantially equal, the third temperature was taken as a reference temperature. Within 15 minutes after the third measurement, the test compound dissolved in pyrogen-free distilled water was injected in the ear vein, and the rectal temperature was measured 3 times at one-hour intervals after injection. A difference between the reference temperature and the maximum temperature was taken as an increase of body temperature, and the pyrogenicity of the test compound was expressed by the number of febrile animals showing a temperature increase of 0.6°C or more.

Japanese white rabbits = format: in vivo; conditions: for Number of Necrosed Animals/Number of Tested Animals: 100 µg LPS intravenously 20 hours later
Description: The local Shwartzman reaction test (Test I) is examined to determine the phenomenon of necrosis, at the site where a test compound was injected, induced by intravenous injection of lipopolysaccharide (hereinafter referred to as LPS) after 20 hours from intracutaneous injection of the test compound to test animals, preferably in rabbits.
The test on Shwartzman reaction specific to endotoxin was carried out as follows using Japanese white rabbits (female, weighing around 3 kg). That is, Japanese domestic white rabbits were intracutaneously injected with the test compound. Twenty hours later, 100 µg of LPS extracted from Salmonella minnesota R595, Re-mutant was intravenously injected to each rabbit. The Shwartzman reaction-induction activity was expressed in terms of number of animals that suffered from hemorrhagic necrosis at the site that had been prepared by intracutaneous injection of the test compound.

[2] = test system: isolated murine lymphocytes (splenocytes); experiment: Test on mitogenicity ([³H]-labeled thymidine uptake); format: cell-based, BALB/c nu/nu mice; conditions: T/C, 48 hours incubation
Description: Spleen of BALB/c nu/nu mice (male; 8-week old) was minced, and lymphocytes collected from the minced spleen were incubated with graded doses of test compounds in RPMI 1640 medium without fetal bovine serum at 37°C at a concentration of 1 x 10⁵ to 1 x 10⁶ lymphocytes per mℓ for 48 hours. Twenty-four hours before the completion of the incubation, [³H]-labeled thymidine (manufactured by New England Nuclear) was added to the culture. After the completion of the incubation, cells were collected on glass micro-fiber paper and dried, and the radioactivity of [³H]-labeled thymidine incorporated into the cells was measured. The ratio of thymidine uptake in the test culture to which the test compound had been added to that in the respective control culture was determined as a stimulation index. The higher the stimulation index, the higher the mitogenicity.

[3] = test system: clotting enzyme of Tachypleus tridentatus (horseshoe crab) amoebocytes; experiment: Test III - Limulus test (toxicolor test); format: biochemical; conditions: activity of 1 mg test compound converted to amount of LPS from E. coli 0111:B4
Description: Also, the compounds of this invention are very useful as a standard reagent for determination of endotoxin in the samples to be tested, and their activity has been confirmed by the local Shwartzman reaction test (Test I in Test Example 3), the pyrogenicity test (Test II in Test Example 3), and the activation of clotting enzyme of Tachypleus tridentatus (horseshoe crab) amoebocytes, i.e., Limulus test (Test III in Test Example 3).
The pyrogenicity of the compounds of this invention was also determined by Limulus test (toxicolor test). That is, the test compound was dissolved in a pyrogen-free 0.1% (vol/vol) triethylamine aqueous solution to a concentration of 2 mg/mℓ and diluted with pyrogen-free distilled water to a concentration of 4 X 10⁻¹ mg/mℓ. Subsequently, dilute aqueous solutions having concentrations of from 4 X 10⁻¹ mg/mℓ to 4 × 10⁻¹⁰ mg/mℓ were prepared by serial 10-fold dilution. […] Thereafter, 0.5 mℓ of sodium nitrite was added to the culture, and after stirring 0.1 mℓ each of ammonium sulfamate and N-(1-naphthyl)-ethylenediamine were added thereto to develop a color, and absorbance at a wavelength of 545 nm was determined. […]

SMILES	Number of Febrile Animals/Number of Tested Animals [1]	Number of Necrosed Animals/Number of Tested Animals (Japanese white rabbits; 20 µg/site intracutaneously)	Stimulation Index ±S.E. ([2]; 0.01 µg/mℓ test compound added)	Stimulation Index ±S.E. ([2]; 0.1 µg/mℓ test compound added)	Stimulation Index ±S.E. ([2]; 1 µg/mℓ test compound added)	Converted LPS Amount [3] [mg]	reaction in Test II (pyrogenicity) ([1]; summary in words)	Number of Necrosed Animals/Number of Tested Animals (Japanese white rabbits; 80 µg/site intracutaneously)	reaction in Test I (local Shwartzman reaction) (Japanese white rabbits; summary in words)
CCCCCCCCCCCCCC(=O)O[C@H](CCCCCCCCCCC)CC(=O)O[C@@H]1[C@@H](NC(=O)C[C@@H](CCCCCCCCCCC)OC(=O)CCCCCCCCCCC)[C@H](OC[C@H]2O[C@H](OP(=O)(O)O)[C@H](NC(=O)C[C@H](O)CCCCCCCCCCC)[C@@H](OC(=O)C[C@H](O)CCCCCCCCCCC)[C@@H]2O)O[C@H](CO)[C@H]1OP(=O)(O)O [Compound of Present Invention, 6-O-{2-Deoxy-2-[(R)-3-dodecanoyloxytetradecanoylamino]-3-O-[(R)-3-tetradecanoyloxytetradecanoyl]-4-O-phosphono-β-D-glucopyranosyl}-2-deoxy-2-[(R)-3-hydroxytetradecanoylamino]-3-O-[(R)-3-hydroxytetradecanoyl]-1-O-phosphono-α-D-glucopyranose]	3/4	2/3	4.06 ± 0.35	9.05 ± 0.70	11.76 ± 0.13	2.38	–	–	–
CCCCCCCCCCC[C@@H](O)CC(=O)N[C@H]1[C@H](OC[C@H]2O[C@H](OP(=O)(O)O)[C@H](NC(=O)C[C@H](O)CCCCCCCCCCC)[C@@H](OC(=O)C[C@H](O)CCCCCCCCCCC)[C@@H]2O)O[C@H](CO)[C@@H](OP(=O)(O)O)[C@@H]1OC(=O)C[C@H](O)CCCCCCCCCCC [Control Compound 1, 6-O-{2-Deoxy-2-[(R)-3-hydroxytetradecanoylamino]-3-O-[(R)-3-hydroxytetradecanoyl]-4-O-phosphono-β-D-glucopyranosyl}-2-deoxy-2-[(R)-3-hydroxytetradecanoylamino]-3-O-[(R)-3-hydroxytetradecanoyl]-1-O-phosphono-α-D-glucopyranose]	0/3	–	–	–	–	1.34	negative	0/3	negative
